In brackets after ≈: the same amount, converted by molar mass. Read-outs that look alike come from different tables or passages of the source.
Assay: Cyclodextrin-AOL solubility diagrams
Assay type: physicochemical
Settings: for solubility: 4 °C; for solubility / solubility at 4 h: aqueous with cosolvent or surfactant or cyclodextrin, thermodynamic from solid
Description: A cyclodextrin-AOL solubility diagram would reveal the profile of the solubility curve of the AOL depending on the concentration of the cyclodextrin. The principle of this method is to add an excess of AOL to cyclodextrin solutions of increasing concentration, then to measure the amount of solubilized AOL. This method confirms the solubilization and evaluates more precisely the cyclodextrin solubilizing power, to define a stoichiometry of the complexes (molar and mass ratios) over the entire range of concentrations studied and to estimate the solubility limit and the stability of the mixtures.
The solubilization was carried out with HP-β-CD and SBE-β-CD in a range of concentration ranging from 2.5% to 40% (m/m) at 20° C., 25° C. and 30° C. To check the stability of the solution, a storage test at 4° C. for 48 hours was carried out with the solutions previously prepared at 20° C.
Aqueous solutions of cyclodextrin at in weight (m/m) concentrations of 2.5%, 5%, 10%, 20%, 30% and 40% were prepared in pure water. An excess of AOL was suspended in 2 mL each of these solutions. Each sample is shaken at 20° C., 25° C. or 30° C. for 4 hours (vortex at 1400 rpm). Each sample is centrifuged (12,500 g) and filtered through a 0.45 μm membrane.
The solubility of AOL in each test solution was quantified by HPLC as detailed in Example 2.

[1] = SBE-β-CD 20% (w/w), 20° C. followed by 48 hours at 4° C.
[2] = SBE-β-CD 30% (w/w), 20° C. followed by 48 hours at 4° C.
[3] = SBE-β-CD 40% (w/w), 20° C. followed by 48 hours at 4° C.

Structure (SMILES): COc1ccc(-c2cc(=S)ss2)cc1 [AOL, 5-(4-methoxyphenyl)-3H-1,2-dithiole-3-thione]
- CD/AOL weight ratio Rm (SBE-β-CD 20% (w/w), 20° C.): 722
- CD/AOL molar ratio RM [1]: 130
- CD/AOL weight ratio Rm [1]: 1211
- CD/AOL molar ratio RM (SBE-β-CD 20% (w/w), 25° C.): 63
- CD/AOL weight ratio Rm (SBE-β-CD 20% (w/w), 25° C.): 587
- CD/AOL molar ratio RM (SBE-β-CD 20% (w/w), 30° C.): 50
- CD/AOL weight ratio Rm (SBE-β-CD 20% (w/w), 30° C.): 469
- CD/AOL molar ratio RM (SBE-β-CD 30% (w/w), 20° C.): 70
- CD/AOL weight ratio Rm (SBE-β-CD 30% (w/w), 20° C.): 650
- CD/AOL molar ratio RM [2]: 112
- CD/AOL weight ratio Rm [2]: 1049
- CD/AOL molar ratio RM (SBE-β-CD 30% (w/w), 25° C.): 56
- CD/AOL weight ratio Rm (SBE-β-CD 30% (w/w), 25° C.): 522
- CD/AOL molar ratio RM (SBE-β-CD 30% (w/w), 30° C.): 45
- CD/AOL weight ratio Rm (SBE-β-CD 30% (w/w), 30° C.): 417
- CD/AOL molar ratio RM (SBE-β-CD 40% (w/w), 20° C.): 64
- CD/AOL weight ratio Rm (SBE-β-CD 40% (w/w), 20° C.): 600
- CD/AOL molar ratio RM [3]: 94
- CD/AOL weight ratio Rm [3]: 876
- CD/AOL molar ratio RM (SBE-β-CD 40% (w/w), 25° C.): 51
- CD/AOL weight ratio Rm (SBE-β-CD 40% (w/w), 25° C.): 474
- CD/AOL molar ratio RM (SBE-β-CD 40% (w/w), 30° C.): 41
- CD/AOL weight ratio Rm (SBE-β-CD 40% (w/w), 30° C.): 383
- solubility (aqueous HP-β-CD solution, HP-β-CD 2.5% (w/w), 20° C. followed by 48 hours at 4° C.): 11.6 µg/mL (≈ 48.3 µM)
- solubility (aqueous HP-β-CD solution, HP-β-CD 5% (w/w), 20° C. followed by 48 hours at 4° C.): 25.1 µg/mL (≈ 104 µM)
- solubility (aqueous HP-β-CD solution, HP-β-CD 10% (w/w), 20° C. followed by 48 hours at 4° C.): 52.7 µg/mL (≈ 219 µM)
- solubility (aqueous HP-β-CD solution, HP-β-CD 20% (w/w), 20° C. followed by 48 hours at 4° C.): 109 µg/mL (≈ 452 µM)
- solubility (aqueous HP-β-CD solution, HP-β-CD 30% (w/w), 20° C. followed by 48 hours at 4° C.): 187 µg/mL (≈ 777 µM)
- solubility (aqueous HP-β-CD solution, HP-β-CD 40% (w/w), 20° C. followed by 48 hours at 4° C.): 270 µg/mL (≈ 1120 µM)
- solubility at 4 h (aqueous HP-β-CD solution, 20 °C, HP-β-CD 2.5% (w/w), 20° C., read-out: AOL solubility): 13.4 µg/mL (≈ 55.7 µM)
- solubility at 4 h (aqueous HP-β-CD solution, 20 °C, HP-β-CD 5% (w/w), 20° C., read-out: AOL solubility): 27.3 µg/mL (≈ 114 µM)
- solubility at 4 h (aqueous HP-β-CD solution, 30 °C, HP-β-CD 40% (w/w), 30° C., read-out: AOL solubility): 644 µg/mL (≈ 2680 µM)
- solubility (aqueous SBE-β-CD solution, SBE-β-CD 2.5% (w/w), 20° C. followed by 48 hours at 4° C.): 16.9 µg/mL (≈ 70.3 µM)
- solubility (aqueous SBE-β-CD solution, SBE-β-CD 5% (w/w), 20° C. followed by 48 hours at 4° C.): 34.6 µg/mL (≈ 144 µM)
- solubility (aqueous SBE-β-CD solution, SBE-β-CD 10% (w/w), 20° C. followed by 48 hours at 4° C.): 70.7 µg/mL (≈ 294 µM)
- solubility (aqueous SBE-β-CD solution, SBE-β-CD 20% (w/w), 20° C. followed by 48 hours at 4° C.): 165 µg/mL (≈ 687 µM)
- solubility (aqueous SBE-β-CD solution, SBE-β-CD 30% (w/w), 20° C. followed by 48 hours at 4° C.): 286 µg/mL (≈ 1190 µM)
- solubility (aqueous SBE-β-CD solution, SBE-β-CD 40% (w/w), 20° C. followed by 48 hours at 4° C.): 457 µg/mL (≈ 1900 µM)
- solubility at 4 h (aqueous SBE-β-CD solution, 20 °C, SBE-β-CD 2.5% (w/w), 20° C., read-out: AOL solubility): 29.3 µg/mL (≈ 122 µM)
- solubility at 4 h (aqueous SBE-β-CD solution, 20 °C, SBE-β-CD 5% (w/w), 20° C., read-out: AOL solubility): 59.7 µg/mL (≈ 248 µM)
- solubility at 4 h (aqueous SBE-β-CD solution, 20 °C, SBE-β-CD 10% (w/w), 20° C., read-out: AOL solubility): 125 µg/mL (≈ 521 µM)
- solubility at 4 h (aqueous SBE-β-CD solution, 20 °C, SBE-β-CD 20% (w/w), 20° C., read-out: AOL solubility): 277 µg/mL (≈ 1150 µM)
- solubility at 4 h (aqueous SBE-β-CD solution, 20 °C, SBE-β-CD 30% (w/w), 20° C., read-out: AOL solubility): 462 µg/mL (≈ 1920 µM)
- solubility at 4 h (aqueous SBE-β-CD solution, 20 °C, SBE-β-CD 40% (w/w), 20° C., read-out: AOL solubility): 667 µg/mL (≈ 2770 µM)
- solubility at 4 h (aqueous SBE-β-CD solution, 25 °C, SBE-β-CD 2.5% (w/w), 25° C., read-out: AOL solubility): 35.8 µg/mL (≈ 149 µM)
- solubility at 4 h (aqueous SBE-β-CD solution, 25 °C, SBE-β-CD 5% (w/w), 25° C., read-out: AOL solubility): 74.9 µg/mL (≈ 312 µM)
- solubility at 4 h (aqueous SBE-β-CD solution, 25 °C, SBE-β-CD 10% (w/w), 25° C., read-out: AOL solubility): 156 µg/mL (≈ 651 µM)
- solubility at 4 h (aqueous SBE-β-CD solution, 25 °C, SBE-β-CD 20% (w/w), 25° C., read-out: AOL solubility): 340 µg/mL (≈ 1420 µM)
- solubility at 4 h (aqueous SBE-β-CD solution, 25 °C, SBE-β-CD 30% (w/w), 25° C., read-out: AOL solubility): 575 µg/mL (≈ 2390 µM)
- solubility at 4 h (aqueous SBE-β-CD solution, 25 °C, SBE-β-CD 40% (w/w), 25° C., read-out: AOL solubility): 844 µg/mL (≈ 3510 µM)
- solubility at 4 h (aqueous SBE-β-CD solution, 30 °C, SBE-β-CD 2.5% (w/w), 30° C., read-out: AOL solubility): 44.7 µg/mL (≈ 186 µM)
- solubility at 4 h (aqueous SBE-β-CD solution, 30 °C, SBE-β-CD 5% (w/w), 30° C., read-out: AOL solubility): 96.2 µg/mL (≈ 400 µM)
- solubility at 4 h (aqueous SBE-β-CD solution, 30 °C, SBE-β-CD 10% (w/w), 30° C., read-out: AOL solubility): 197 µg/mL (≈ 821 µM)
- solubility at 4 h (aqueous SBE-β-CD solution, 30 °C, SBE-β-CD 20% (w/w), 30° C., read-out: AOL solubility): 427 µg/mL (≈ 1780 µM)
- solubility at 4 h (aqueous SBE-β-CD solution, 30 °C, SBE-β-CD 30% (w/w), 30° C., read-out: AOL solubility): 720 µg/mL (≈ 3000 µM)
- solubility at 4 h (aqueous SBE-β-CD solution, 30 °C, SBE-β-CD 40% (w/w), 30° C., read-out: AOL solubility): 1040 µg/mL (≈ 4340 µM)
- solubility at 4 h (aqueous cyclodextrin solution, 20 °C, HP-β-CD 10% (w/w), 20° C., read-out: AOL solubility): 61.3 µg/mL (≈ 255 µM)
- solubility at 4 h (aqueous cyclodextrin solution, 20 °C, HP-β-CD 20% (w/w), 20° C., read-out: AOL solubility): 145 µg/mL (≈ 602 µM)
- solubility at 4 h (aqueous cyclodextrin solution, 20 °C, HP-β-CD 30% (w/w), 20° C., read-out: AOL solubility): 243 µg/mL (≈ 1010 µM)
- solubility at 4 h (aqueous cyclodextrin solution, 20 °C, HP-β-CD 40% (w/w), 20° C., read-out: AOL solubility): 344 µg/mL (≈ 1430 µM)
- solubility at 4 h (aqueous cyclodextrin solution, 25 °C, HP-β-CD 2.5% (w/w), 25° C., read-out: AOL solubility): 19.5 µg/mL (≈ 81.1 µM)
- solubility at 4 h (aqueous cyclodextrin solution, 25 °C, HP-β-CD 5% (w/w), 25° C., read-out: AOL solubility): 40.1 µg/mL (≈ 167 µM)
- solubility at 4 h (aqueous cyclodextrin solution, 25 °C, HP-β-CD 10% (w/w), 25° C., read-out: AOL solubility): 83.9 µg/mL (≈ 349 µM)
- solubility at 4 h (aqueous cyclodextrin solution, 25 °C, HP-β-CD 20% (w/w), 25° C., read-out: AOL solubility): 184 µg/mL (≈ 766 µM)
- solubility at 4 h (aqueous cyclodextrin solution, 25 °C, HP-β-CD 30% (w/w), 25° C., read-out: AOL solubility): 287 µg/mL (≈ 1200 µM)
- solubility at 4 h (aqueous cyclodextrin solution, 25 °C, HP-β-CD 40% (w/w), 25° C., read-out: AOL solubility): 418 µg/mL (≈ 1740 µM)
- solubility at 4 h (aqueous cyclodextrin solution, 30 °C, 30° C., 40% (w/w) HP-β-CD, read-out: highest solubility reached): 650 µg/mL (≈ 2700 µM)
- solubility at 4 h (aqueous cyclodextrin solution, 30 °C, 30° C., 40% SBE-β-CD, read-out: solubility): > 1000 µg/mL
- solubility at 4 h (aqueous cyclodextrin solution, 30 °C, HP-β-CD 2.5% (w/w), 30° C., read-out: AOL solubility): 26.1 µg/mL (≈ 109 µM)
- solubility at 4 h (aqueous cyclodextrin solution, 30 °C, HP-β-CD 5% (w/w), 30° C., read-out: AOL solubility): 51.4 µg/mL (≈ 214 µM)
- solubility at 4 h (aqueous cyclodextrin solution, 30 °C, HP-β-CD 10% (w/w), 30° C., read-out: AOL solubility): 114 µg/mL (≈ 476 µM)
- solubility at 4 h (aqueous cyclodextrin solution, 30 °C, HP-β-CD 20% (w/w), 30° C., read-out: AOL solubility): 255 µg/mL (≈ 1060 µM)
- solubility at 4 h (aqueous cyclodextrin solution, 30 °C, HP-β-CD 30% (w/w), 30° C., read-out: AOL solubility): 458 µg/mL (≈ 1900 µM)
